Assay results reported in patent publication US20250255890A1, “PSILOCYBIN CULTIVATION, EXTRACTION, AND THERAPEUTIC USE” (Golden Fleece Research Group Inc., priority 2024, published 2025).

System: patients with certain neurological and mental disorders
Experiment: Therapeutic effects of psilocybin in selected patients (patient experiences)
Type: in vivo, human
Conditions: identified group of selected patients after intaking the psilocybin products
Text: In one aspect, psilocybin is effective in treating and reducing ADHD, anxiety, ADD and the symptoms of Tourette Syndrome. […] Some patients suffered significant side effects when taking prescription drugs for the respective indications.

CN(C)CCc1c[nH]c2cccc(OP(=O)(O)O)c12 [Psilocybin, psilocybin]
side effects: minimal side effects
